These results are taken from PMC3361975 (Biochemistry, 2012).

Molecules are shown by their SMILES. Where two headings read alike, the source gives them in different places.

The experiment concerns PTDH ortholog from Nostoc sp. 7120. Put plainly: initial rate of NADH formation at […] nm, Michaelis-Menten fit. It is filed as biochemical, Nostoc sp. PCC 7120. The conditions noted are these: read-out: Nostoc sp. 7120, 100 mM MOPS pH 7.25, 30 °C.

With `NC(=O)c1ccc[n+]([C@@H]2O[C@H](COP(=O)(O)OP(=O)(O)OC[C@H]3O[C@@H](n4cnc5c(N)ncnc54)[C@H](O)[C@@H]3O)[C@@H](O)[C@H]2O)c1` [NAD^+], the Km (co-substrate phosphite) was found to be 10.3 µM. On to `O=[PH](O)O` [phosphite], for which the Km (co-substrate NAD+) amounted to 20.2 µM.
